Reference: US7608631B2, “4-(3,3-dihalo-allyloxy) phenol derivatives having pesticidal properties” (Syngenta Crop Protection, Inc., priority 2002, dated 2009)

Columns and labels:
Assay type in all cases: in vivo
[1] = test system: Heliothis virescens; experiment: Action against Heliothis virescens caterpillars (sprayed soybean plants); settings: 144 h, 400 ppm spray on young soybean plants, 10 caterpillars in the first stage, evaluation 6 days later, read-out: percentage reduction in population and percentage reduction in feeding damage (% activity)
Protocol: Young soybean plants are sprayed with an aqueous emulsion spray mixture comprising 400 ppm of test compound. After the spray-coating has dried, the soybean plants are populated with 10 caterpillars of Heliothis virescens in the first stage and placed in a plastics container. Evaluation is made 6 days later. The percentage reduction in population and the percentage reduction in feeding damage (% activity) are determined by comparing the number of dead caterpillars and the feeding damage on the treated plants with that on the untreated plants.

[2] = test system: Spodoptera littoralis; experiment: Action against Spodoptera littoralis (sprayed soybean plants); settings: 72 h, 400 ppm spray on young soybean plants, 10 caterpillars in the first stage, 3 days later, read-out: percentage reduction in population and percentage reduction in feeding damage (% activity)
Protocol: Young soybean plants are sprayed with an aqueous emulsion spray mixture comprising 400 ppm of test compound and, after the spray-coating has dried, the plants are populated with 10 caterpillars of Spodoptera littoralis in the first stage and then placed in a plastics container. 3 days later, the percentage reduction in population and the percentage reduction in feeding damage (% activity) are determined by comparing the number of dead caterpillars and the feeding damage on the treated plants with that on untreated plants.

[3] = test system: Plutella xylostella; experiment: Action against Plutella xylostella caterpillars (sprayed cabbage plants); settings: 72 h, 400 ppm spray on young cabbage plants, 10 caterpillars in the third stage, evaluation 3 days later, read-out: percentage reduction in population and percentage reduction in feeding damage (% activity)
Protocol: Young cabbage plants are sprayed with an aqueous emulsion spray mixture comprising 400 ppm of test compound. After the spray-coating has dried, the cabbage plants are populated with 10 caterpillars of Plutella xylostella in the third stage and placed in a plastics container. Evaluation is made 3 days later. The percentage reduction in population and the percentage reduction in feeding damage (% activity) are determined by comparing the number of dead caterpillars and the feeding damage on the treated plants with that on the untreated plants.

Measured: inhibition at 400 ppm

ClC(Cl)=CCOc1cc(Cl)c(OCCCOc2ccc(-c3noc(Cl)n3)cc2)c(Cl)c1 [Compound 1.16, 5-chloro-3-(4-{3-[2,6-dichloro-4-(3,3-dichloro-allyloxy)-phenoxy]-propoxy}-phenyl)-[1,2,4]oxadiazole]
> 80%: all assays above

CCn1nnc(-c2ccc(OCCCOc3c(Cl)cc(OCC=C(Cl)Cl)cc3Cl)cc2)n1 [Compound 1.4, 5-(4-{3-[2,6-dichloro-4-(3,3-dichloro-allyloxy)-phenoxy]-propoxy}-phenyl)-2-ethyl-2H-tetrazole]
> 80%: all assays above

ClC(Cl)=CCOc1cc(Cl)c(OCCCOc2ccc(-c3cc(Cl)on3)cc2)c(Cl)c1 [Compound 1.17, 5-chloro-3-(4-{3-[2,6-dichloro-4-(3,3-dichloro-allyloxy)-phenoxy]-propoxy}-phenyl)-isoxazole]
> 80%: all assays above
